{
  "source": "paper PMC7269146",
  "about": "“Jingzhaotoxin-X, a gating modifier of Kv4.2 and Kv4.3 potassium channels purified from the venom of the Chinese tarantula Chilobrachys jingzhao” (The Journal of Venomous Animals and Toxins Including …, 2020)",
  "target": "T1, Kv4.2 (Rattus norvegicus, UniProt Q63881)",
  "T1 construct": "expressed in transfected cells; host or cells: HEK293t",
  "T1 sequence (Q63881 1-630)": "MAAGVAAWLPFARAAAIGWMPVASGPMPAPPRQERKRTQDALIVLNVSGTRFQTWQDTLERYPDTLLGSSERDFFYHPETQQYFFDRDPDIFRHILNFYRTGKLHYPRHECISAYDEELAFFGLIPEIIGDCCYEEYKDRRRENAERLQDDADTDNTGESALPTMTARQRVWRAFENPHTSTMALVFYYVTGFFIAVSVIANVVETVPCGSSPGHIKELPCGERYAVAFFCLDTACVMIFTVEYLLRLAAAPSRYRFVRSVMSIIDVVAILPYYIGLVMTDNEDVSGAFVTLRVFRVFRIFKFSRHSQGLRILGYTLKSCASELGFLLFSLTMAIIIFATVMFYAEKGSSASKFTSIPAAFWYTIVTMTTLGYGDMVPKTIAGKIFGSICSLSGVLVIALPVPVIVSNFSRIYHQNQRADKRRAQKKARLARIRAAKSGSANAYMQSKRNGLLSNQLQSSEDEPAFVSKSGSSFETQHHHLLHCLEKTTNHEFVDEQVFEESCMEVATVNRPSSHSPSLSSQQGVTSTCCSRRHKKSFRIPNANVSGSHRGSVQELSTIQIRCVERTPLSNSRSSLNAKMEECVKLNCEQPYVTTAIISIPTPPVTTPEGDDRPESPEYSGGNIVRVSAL",
  "experiment": "microelectrode voltage-clamp, Xenopus laevis oocytes, Kv4.2",
  "format": "cell-based",
  "conditions": "+20 mV from -90 mV, n = 5, read-out: inhibition of Kv4.2 current",
  "excerpt": "Rat cDNA genes encoding Kv4.2 (Accession: NM_031730.2) and Kv4.3 (Accession: AB003587.1) were subcloned to vector pcDNA3.1. In addition, human cDNA genes encoding Nav1.7 (Accession: DQ857292.1) and Nav1.5 (Accession: AB158469.2) were subcloned to vectors pcDNA3.1-mod and pcDNA3.1, separately. Then, Kv4.2, Kv4.3, Nav1.5 and Nav1.7 constructs were transiently transfected into the human embryonic kidney 293t (HEK293t) cells using lipofectamine 2000 (Invitrogen, USA) in accordance with manufacturer protocols. Thereafter, HEK293 cells were inoculated within Dulbecco’s modified Eagle’s medium (DMEM) containing 10% fetal bovine serum (FBS) at 5% CO2 and 37°C. The Kv4.3 channel and the Kv4.2 counterpart were then transfected in the absence of β subunit. Subsequently, cells were incubated with a DNA-lipofectamine mixture (one reporter plasmid for green fluorescence protein and channel constructs) for 4-6 h, and were washed with the fresh medium.\nBriefly, plasmids were linearized, and transcription was carried out according to the standardized protocol. Afterwards, the capped cRNAs that encoded the related ion channels were prepared. […]",
  "note": "Where a SMILES comes first, the peptide text is derived from it. Bridges are numbered along the chain shown (N, C = ends).",
  "data": [
    {"smiles": "CC(C)C[C@@H]1NC(=O)[C@H](CCCCN)NC(=O)[C@H](Cc2ccc(O)cc2)NC(=O)[C@@H]2CSSC[C@@H]3NC(=O)[C@H](Cc4ccc(O)cc4)NC(=O)[C@H](Cc4ccccc4)NC(=O)CNC(=O)[C@H](C)NC(=O)[C@H](CSSC[C@H](NC(=O)[C@@H](N)CC(C)C)C(=O)N[C@@H](CO)C(=O)N[C@@H](CCCNC(=N)N)C(=O)N[C@@H](CCC(=O)O)C(=O)NCC(=O)N[C@@H](CCC(=O)O)C(=O)N[C@@H](Cc4ccccc4)C(=O)N2)NC(=O)[C@H](CSSC[C@@H](C(=O)N[C@@H](Cc2ccc(O)cc2)C(=O)N[C@@H](CCCNC(=N)N)C(=O)N[C@@H](CC(N)=O)C(=O)O)NC(=O)[C@H](Cc2c[nH]cn2)NC(=O)[C@H](CC(C)C)NC(=O)[C@H](C(C)C)NC(=O)[C@H](Cc2ccccc2)NC(=O)[C@H](C)NC(=O)[C@H](CCCCN)NC3=O)NC(=O)[C@H](CCCCN)NC(=O)[C@H](CCCNC(=N)N)NC1=O", "note": "[JZTX-X, Jingzhaotoxin-X] (H-LCSREGEFCYKLRKCCAGFYCKAFVLHCYRN-OH; disulfide 2-16, 9-21, 15-28; N-terminus assumed)", "values": [
      {"measurement": "inhibition at 0.1 µM", "setting": "0.1 μM (100 nM)", "result": "57.8 ± 4.6", "unit": "%"},
      {"measurement": "inhibition at 0.5 µM", "setting": "0.5 μM (500 nM)", "result": "83.8 ± 5.1", "unit": "%"}
    ]}
  ]
}
